Source: patent US20030073206A1, “Use of xylene monooxygenase for the oxidation of substituted monocyclic aromatic compounds” (priority 2001, published 2003)

Tests used:
[1] = system: Sphingomonas strain ASU1; assay: Carbon source utilization for strain ASU1 (growth on S12 agar with aromatic compounds); assay type: cell-based, Sphingomonas sp.; details: compound as sole source of carbon and energy, 28° C.
Protocol: S12 agar was used to isolate bacteria from liquid enrichment cultures that grow on 2,6-dimethylnaphthalene (2,6-DMN) and to test isolates for growth with various sources of carbon and energy. S12 agar was prepared by adding 1.5% Noble agar (DIFCO) to S12 medium.
Bacteria that grow on 2,6-DMN were isolated from an enrichment culture. The enrichment culture was established by inoculating 0.1 mL of activated sludge into 10 mL of S12 medium in a 125 mL screw cap Erlenmeyer flask. The activated sludge was obtained from a wastewater treatment facility in Ponco City. The enrichment culture was supplemented with adding yeast extract (0.001 % final concentration) by adding a few flakes of 2,6-DMN directly to the culture medium. The enrichment culture was incubated at 28° C. with reciprocal shaking. The culture was diluted every 4 to 7 d by replacing 9 mL of the culture with the same volume of S12 medium with 0.001% yeast extract and a few additional flakes of 2,6-DMN. Bacteria that utilized 2,6-DMN as a sole source of carbon and energy were isolated by spreading samples of the enrichment culture onto S12 agar. 2,6-DMN was placed on the interior of each Petri dish lid. The Petri dishes were sealed with parafilm and incubated upside down at 28° C. Representative bacterial colonies were then tested for the ability to use 2,6-DMN as a sole source of carbon and energy. […]

[2] = target: T1, xylene monooxygenase (xylM and xylA) cloned from plasmid pWWO (Pseudomonas putida, UniProt P21395); assay: Oxidation of p-xylene by Escherichia coli recombinant with cloned pWWO xylene monooxygenase genes (Clone 6f), HPLC of culture supernatant; assay type: cell-based; details: Clone 6f culture in M9 medium with p-xylene, 37° C., after 24 h of incubation
T1 construct: expressed in transfected cells; host or cells: Escherichia coli TOP10 carrying pCR2.1-TOPO with a 2.4 kb pWWO xylM-xylA PCR fragment from P. putida ATCC 33015 (Clone 6f)
T1 sequence (P21395 whole entry, the tested form may be a part): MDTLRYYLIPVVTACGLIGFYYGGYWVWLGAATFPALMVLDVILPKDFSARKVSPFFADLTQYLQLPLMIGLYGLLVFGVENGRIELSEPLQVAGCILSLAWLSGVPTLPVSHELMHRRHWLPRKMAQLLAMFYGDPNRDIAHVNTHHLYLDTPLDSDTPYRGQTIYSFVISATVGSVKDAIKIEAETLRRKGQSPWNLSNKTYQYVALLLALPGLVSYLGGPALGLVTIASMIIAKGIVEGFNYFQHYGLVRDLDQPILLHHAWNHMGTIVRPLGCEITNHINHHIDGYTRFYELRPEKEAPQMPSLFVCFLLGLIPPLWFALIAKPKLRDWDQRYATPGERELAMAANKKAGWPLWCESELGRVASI
Protocol: (§1) Standard M9 minimal medium were used to assay for oxidation of p-xylene by Escherichia coli with cloned xylene monooxygenase. The M9 medium consisted of 42.3 mM Na2HPO4, 22.1 mM KH2PO4, 8.6 mM NaCl, 18.7 mM NH4Cl, 2 mM MgSO4 and 0.1 mM CaCl2, 0.4% of glycerol was used as the carbon/energy source.
(§2) Analyses were performed on a Hewlett Packard 1100 series with a photo diode UV-visible detector set at 230 nm (primary wavelength), 254 nm (secondary wavelength) and 450 nm as background reference and a LC/MSD-ESI negative ion spectrophotometer. The column was a Hewlett Packard part # 880967.901 Zorbax® SB-C8 (4.6 mm×25 cm), purchased from Agilient Technologies (Palo Alto, Calif.). The column temperature was controlled at 50° C. Mobile phase was […] ammonium acetate (20 mL 1 M ammonium acetate in 1800 mL water (solvent-2=S-2)) and acetonitrile (solvent-1=S-1). […]
(§3) The conversion of p-xylene to 4-hydroxymethylbenzoic acid was monitored by reverse phase HPLC. […]
(§4) Escherichia coli strain TOP10(pCR®2.1 TOPO™) and Escherichia coli clones expressing xylene monooxygenase (Clone 4a and Clone 6f) were inoculated into 500 mL Erlenmyer flasks containing 50 mL of M-9 supplemented with tryptophan (100 μg/mL), glycerol (0.4%), casamino acids (0.4%) and 50 μg/mL ampicillin. […] The sample supernatants were passed through 0.22 μm Acrodisc® CR PFTE filters and analyzed for metabolites of p-xylene by HPLC.

[3] = system: xylene monooxygenase (xylM and xylA) cloned from Sphingomonas strain ASU1; assay: Oxidation of p-xylene by Escherichia coli recombinant with cloned ASU1 xylene monooxygenase genes (Clone 4a), HPLC of culture supernatant; assay type: cell-based; details: Clone 4a culture in M9 medium with p-xylene, 37° C., after 24 h of incubation
Protocol: as §1, §2, §3, §4

## Cc1ccc2cc(C)ccc2c1 [2,6-dimethylnaphthalene]
[1]; listed as 2,6-DMN
  Growth on Carbon Source: able to grow

## c1ccccc1 [Benzene]
[1]
  Growth on Carbon Source: unable to utilize

## Cc1ccc(C)cc1 [p-xylene]
[2]
  p-xylene metabolites detected by HPLC: Three p-xylene metabolites were detected
[3]
  p-xylene metabolites detected by HPLC: Three p-xylene metabolites were detected
